According to patent US8846704B2, “Thiopyrimidine-based compounds and uses thereof” (YM Biosciences Austraila Pty Ltd, priority 2007, dated 2014):

Assays:
Assay type in all cases: biochemical
[1] = target: T1, Human hemopoietic cell protein-tyrosine kinase (HCK) (Homo sapiens, UniProt P08631); test: Alphascreen tyrosine kinase enzyme assay, HCK kinase domain; conditions: read-out: FMS, FLT3, or HCK IC50_nM (HCK)
T1 construct: GST (N); made in house; host or cells: Sf9 insect cells (baculovirus)
Description: (§1) For screening purposes, compounds (in 100% DMSO) were warmed at 37 degrees for at least 20 minutes before use. A […] stock was initially made in assay buffer, where the final concentration of DMSO was 0.3%. The stocks were then diluted in 384 well Optiplates (Packard) where the final concentration of the compound was […].
The kinase domain of Human hemopoietic cell protein-tyrosine kinase (HCK) between L212 and P505 (accession number M16592) was amplified from U937 mRNA using the polymerase chain reaction.
The PCR product was cloned into the pDest20 destination vector (Gibco). The plasmid was then transformed into competent […] cells (Gibco) to produce a HCK bacmid. The recombinant baculovirus was prepared via Sf9 insect cell transfection with bacmid DNA.
Baculovirus preparations from each of the constructs were infected into either one or five liters of Sf9 cells (Invitrogen) grown in SF-900 medium (Invitrogen) to a cell density of approximately 1-2×10^6 cells/ml. Cells were infected with virus at a MOI of 0.8-3.0. Cells were harvested and lysed. Tyrosine kinase domains were purified by affinity chromatography on a glutathione-agarose column (Scientifix Pty. Ltd. catalog #: GSH-200). […]

human CSF1-R (FMS) = target: T2, human CSF1-R (FMS) (Homo sapiens, UniProt P07333); test: Alphascreen tyrosine kinase enzyme assay, CSF-1R (FMS) kinase domain; conditions: read-out: FMS, FLT3, or HCK IC50_nM (FMS)
T2 construct: from codon I553 to Q961; GST (N); made in house; host or cells: Sf9 insect cells (baculovirus)
T2 sequence (P07333 553-961): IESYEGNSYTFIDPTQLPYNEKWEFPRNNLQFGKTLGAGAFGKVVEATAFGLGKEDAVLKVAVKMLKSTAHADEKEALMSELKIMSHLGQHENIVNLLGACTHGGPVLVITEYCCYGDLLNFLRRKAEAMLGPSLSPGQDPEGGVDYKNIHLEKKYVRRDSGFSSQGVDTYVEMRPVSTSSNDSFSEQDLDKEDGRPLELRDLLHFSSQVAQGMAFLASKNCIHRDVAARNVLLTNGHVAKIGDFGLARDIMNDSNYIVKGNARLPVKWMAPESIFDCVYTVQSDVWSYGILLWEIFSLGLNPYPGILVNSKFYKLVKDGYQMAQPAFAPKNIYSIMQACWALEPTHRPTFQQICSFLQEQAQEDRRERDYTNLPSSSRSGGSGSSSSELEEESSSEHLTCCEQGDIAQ
Description: as §1
The kinase domain of human CSF1-R from codon I553 to Q961 was cloned into the pDest20 expression vector (Invitrogen). The CSF1-R plasmid was then transformed into competent DH10Bac cells (Gibco), and the recombinant baculovirus produced prepared for transfection into Sf9 insect cells.
(§2) Baculovirus preparations from each of the constructs were infected into either one or five liters of Sf9 cells (Invitrogen) grown in SF-900 medium (Invitrogen) to a cell density of approximately 1-2×10^6 cells/ml. Cells were infected with virus at a MOI of 0.8-3.0. Cells were harvested and lysed. Tyrosine kinase domains were purified by affinity chromatography on a glutathione-agarose column (Scientifix Pty. Ltd. catalog #: GSH-200).
(§3) Kinase assays were performed in 384 well Optiplates (Packard) using an Alphascreen Protein Tyrosine Kinase PY100 detection kit The compounds were pre-incubated with affinity purified PTK domain in the presence of phosphotyrosine assay buffer (10 mM HEPES, pH 7.5, 100 mM MgCl2, 25 mM NaCl, […] and 0.1% Tween 20) for 20 minutes. The compounds were then incubated with substrate in the presence of ATP. The substrate used was susbtrate-1 with the sequence biotin-EGPWLEEEEEAYGWMDF-NH2 [SEQ. ID. NO. 13] (final concentration […]). For HCK 80 μm ATP was used and incubated for 60 minutes. Alphascreen phosphotyrosine acceptor beads followed by streptavidin donor beads at a concentration of 1/100 in stop buffer were added to each well under subdued light and incubated for 2-3 hours., The Alphascreen plates were read on a Packard Fusion Alpha instrument.

Blk(m) = target: T3, Blk(m) (Mus musculus, UniProt P16277); test: Upstate KinaseProfiler enzyme assay, Blk; conditions: 500 nM compound; read-out: Percent inhibition at 500 nM Blk(m)
T3 construct: purchased Upstate Biotechnology (Dundee, UK), KinaseProfiler service
T3 sequence (P16277 whole entry): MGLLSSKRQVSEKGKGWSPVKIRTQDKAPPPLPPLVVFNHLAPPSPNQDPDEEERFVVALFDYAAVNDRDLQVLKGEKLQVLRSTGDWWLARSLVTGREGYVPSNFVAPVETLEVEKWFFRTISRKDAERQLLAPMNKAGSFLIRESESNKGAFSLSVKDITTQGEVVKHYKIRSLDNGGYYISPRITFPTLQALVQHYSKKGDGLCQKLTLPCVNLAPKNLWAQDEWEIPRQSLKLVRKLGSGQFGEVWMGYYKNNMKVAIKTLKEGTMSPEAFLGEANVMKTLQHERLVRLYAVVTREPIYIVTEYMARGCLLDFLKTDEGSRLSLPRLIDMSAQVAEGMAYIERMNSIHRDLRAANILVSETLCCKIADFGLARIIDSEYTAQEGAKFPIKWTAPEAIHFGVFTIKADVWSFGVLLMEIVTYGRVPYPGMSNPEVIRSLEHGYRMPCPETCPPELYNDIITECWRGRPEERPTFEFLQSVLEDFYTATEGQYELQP
Description: (§4) Further enzyme assays were conducted at Upstate Biotechnology (Dundee, UK) in the KinaseProfiler™ Assay system.
(§5) The general protocol is as follows. All kinases are pre-diluted to a 10× working concentration prior to addition into the assay. The composition of the dilution buffer for the kinases is 20 mM MOPS pH 7.0, 1 mM EDTA, 0.1% β-mercaptoethanol, 0.01% Brij-35, 5% glycerol, 1 mg/ml BSA. All substrates are dissolved and diluted to working stocks in de-ionised water.

Bmx(h) = target: T4, Bmx(h) (Homo sapiens, UniProt P51813); test: Upstate KinaseProfiler enzyme assay, Bmx; conditions: 500 nM compound; read-out: Percent inhibition at 500 nM Bmx(h)
T4 construct: purchased Upstate Biotechnology (Dundee, UK), KinaseProfiler service
T4 sequence (P51813 1-675): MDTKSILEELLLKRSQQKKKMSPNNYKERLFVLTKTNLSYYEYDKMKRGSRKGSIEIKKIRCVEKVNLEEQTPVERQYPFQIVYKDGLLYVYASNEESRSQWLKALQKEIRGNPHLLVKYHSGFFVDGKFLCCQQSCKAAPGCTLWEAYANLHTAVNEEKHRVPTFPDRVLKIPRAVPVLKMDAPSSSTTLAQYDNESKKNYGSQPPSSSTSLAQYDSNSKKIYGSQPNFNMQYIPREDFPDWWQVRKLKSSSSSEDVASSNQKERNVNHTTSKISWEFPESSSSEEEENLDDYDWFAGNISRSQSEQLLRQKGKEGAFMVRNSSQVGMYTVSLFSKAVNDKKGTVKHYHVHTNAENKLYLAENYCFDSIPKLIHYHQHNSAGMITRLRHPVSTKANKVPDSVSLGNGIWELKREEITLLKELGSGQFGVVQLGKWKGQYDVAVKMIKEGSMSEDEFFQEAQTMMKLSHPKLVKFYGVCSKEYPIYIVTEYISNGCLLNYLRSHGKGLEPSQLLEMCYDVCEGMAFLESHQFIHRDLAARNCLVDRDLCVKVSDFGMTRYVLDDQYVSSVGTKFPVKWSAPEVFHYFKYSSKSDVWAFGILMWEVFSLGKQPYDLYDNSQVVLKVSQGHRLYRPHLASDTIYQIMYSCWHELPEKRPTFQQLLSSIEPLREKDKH
Description: as §4, §5

BTK(h) = target: T5, BTK(h) (Homo sapiens, UniProt Q06187); test: Upstate KinaseProfiler enzyme assay, BTK; conditions: 500 nM compound; read-out: Percent inhibition at 500 nM BTK(h)
T5 construct: purchased Upstate Biotechnology (Dundee, UK), KinaseProfiler service
T5 sequence (Q06187 whole entry): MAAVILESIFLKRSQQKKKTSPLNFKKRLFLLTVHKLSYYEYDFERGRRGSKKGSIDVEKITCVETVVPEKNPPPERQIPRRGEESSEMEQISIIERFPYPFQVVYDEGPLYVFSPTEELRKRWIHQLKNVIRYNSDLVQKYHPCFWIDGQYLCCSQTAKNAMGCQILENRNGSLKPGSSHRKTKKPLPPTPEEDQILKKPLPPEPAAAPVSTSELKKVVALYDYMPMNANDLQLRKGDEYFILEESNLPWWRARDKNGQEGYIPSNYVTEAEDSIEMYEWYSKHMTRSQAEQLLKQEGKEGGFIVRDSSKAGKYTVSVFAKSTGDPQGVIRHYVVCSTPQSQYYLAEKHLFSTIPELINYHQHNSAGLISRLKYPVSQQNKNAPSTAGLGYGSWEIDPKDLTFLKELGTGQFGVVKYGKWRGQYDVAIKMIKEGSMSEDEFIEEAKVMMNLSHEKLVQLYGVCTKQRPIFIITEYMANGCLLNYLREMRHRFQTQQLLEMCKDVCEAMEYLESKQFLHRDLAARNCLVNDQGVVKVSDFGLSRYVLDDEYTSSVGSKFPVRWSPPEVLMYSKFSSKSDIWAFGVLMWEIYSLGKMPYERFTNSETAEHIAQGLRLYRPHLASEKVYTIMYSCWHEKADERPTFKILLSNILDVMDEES
Description: as §4, §5

KDR(h) = target: T6, KDR(h) (Homo sapiens, UniProt P35968); test: Upstate KinaseProfiler enzyme assay, KDR; conditions: 500 nM compound; read-out: Percent inhibition at 500 nM KDR(h)
T6 construct: purchased Upstate Biotechnology (Dundee, UK), KinaseProfiler service
T6 sequence (P35968 20-1356): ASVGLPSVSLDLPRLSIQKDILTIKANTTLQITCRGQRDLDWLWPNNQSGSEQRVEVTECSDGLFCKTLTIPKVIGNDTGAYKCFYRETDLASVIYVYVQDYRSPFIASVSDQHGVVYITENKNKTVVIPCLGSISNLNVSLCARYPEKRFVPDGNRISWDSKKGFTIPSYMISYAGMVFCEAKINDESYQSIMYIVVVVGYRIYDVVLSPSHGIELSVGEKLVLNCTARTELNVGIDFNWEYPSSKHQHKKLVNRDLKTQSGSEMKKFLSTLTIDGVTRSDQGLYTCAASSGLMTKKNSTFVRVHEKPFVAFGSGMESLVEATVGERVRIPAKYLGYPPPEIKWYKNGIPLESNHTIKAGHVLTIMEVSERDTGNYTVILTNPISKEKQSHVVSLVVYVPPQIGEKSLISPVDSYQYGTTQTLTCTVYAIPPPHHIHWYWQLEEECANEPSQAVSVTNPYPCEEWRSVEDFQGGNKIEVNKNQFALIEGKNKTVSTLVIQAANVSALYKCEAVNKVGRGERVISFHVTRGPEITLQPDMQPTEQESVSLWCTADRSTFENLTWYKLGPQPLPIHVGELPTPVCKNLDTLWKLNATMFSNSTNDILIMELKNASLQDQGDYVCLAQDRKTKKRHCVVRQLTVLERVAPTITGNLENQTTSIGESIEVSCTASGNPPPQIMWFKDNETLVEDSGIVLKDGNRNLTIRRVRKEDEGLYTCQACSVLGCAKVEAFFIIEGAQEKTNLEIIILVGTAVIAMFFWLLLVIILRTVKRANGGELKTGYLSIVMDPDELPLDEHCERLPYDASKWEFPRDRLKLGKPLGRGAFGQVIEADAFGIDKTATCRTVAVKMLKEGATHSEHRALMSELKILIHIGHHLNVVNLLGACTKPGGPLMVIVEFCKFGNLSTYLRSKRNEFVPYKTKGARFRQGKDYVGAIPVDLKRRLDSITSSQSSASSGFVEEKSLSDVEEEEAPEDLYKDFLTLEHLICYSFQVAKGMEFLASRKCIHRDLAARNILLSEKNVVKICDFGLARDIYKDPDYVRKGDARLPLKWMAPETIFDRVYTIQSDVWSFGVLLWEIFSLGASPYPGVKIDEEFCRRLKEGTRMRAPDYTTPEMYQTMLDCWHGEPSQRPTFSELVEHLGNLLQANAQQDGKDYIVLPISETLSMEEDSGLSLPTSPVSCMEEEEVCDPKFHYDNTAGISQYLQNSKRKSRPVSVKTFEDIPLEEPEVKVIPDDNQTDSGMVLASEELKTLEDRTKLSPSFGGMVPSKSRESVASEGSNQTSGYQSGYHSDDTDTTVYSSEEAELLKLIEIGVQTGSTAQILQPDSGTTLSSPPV
Description: as §4, §5

human JAK2 = target: T7, human JAK2 (Homo sapiens, UniProt O60674); test: Alphascreen tyrosine kinase enzyme assay, JAK2 kinase domain; conditions: read-out: JAK2 IC50_nM
T7 construct: The kinase domain of human JAK2 was amplified; GST (N); made in house; host or cells: Sf9 insect cells (baculovirus)
T7 sequence (O60674 849-1124 limits assumed): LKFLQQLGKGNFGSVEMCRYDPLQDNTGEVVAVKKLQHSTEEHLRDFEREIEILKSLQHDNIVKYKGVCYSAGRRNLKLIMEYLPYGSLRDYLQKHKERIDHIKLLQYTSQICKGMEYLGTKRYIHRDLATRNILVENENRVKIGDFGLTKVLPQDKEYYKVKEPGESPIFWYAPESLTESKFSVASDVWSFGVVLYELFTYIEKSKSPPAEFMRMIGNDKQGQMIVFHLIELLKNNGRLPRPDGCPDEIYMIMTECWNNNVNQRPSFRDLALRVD
Description: as §1
The kinase domain of human JAK2 was amplified from U937mRNA using the polymerase chain reaction with the following primers: […]
The JAK2 PCR products were cloned into the pDest20 destination vector (Gibco). The JAK2 plasmid was then transformed into competent DH10Bac cells (Gibco), and the recombinant baculovirus was prepared via Sf9 insect cell transfection.
as §2, §3

human JAK3 = target: T8, human JAK3 (Homo sapiens, UniProt P52333); test: Alphascreen tyrosine kinase enzyme assay, JAK3 kinase domain; conditions: read-out: JAK3 IC50_nM
T8 construct: The kinase domain of human JAK3 was amplified; GST (N); made in house; host or cells: Sf9 insect cells (baculovirus)
T8 sequence (P52333 822-1111 limits assumed): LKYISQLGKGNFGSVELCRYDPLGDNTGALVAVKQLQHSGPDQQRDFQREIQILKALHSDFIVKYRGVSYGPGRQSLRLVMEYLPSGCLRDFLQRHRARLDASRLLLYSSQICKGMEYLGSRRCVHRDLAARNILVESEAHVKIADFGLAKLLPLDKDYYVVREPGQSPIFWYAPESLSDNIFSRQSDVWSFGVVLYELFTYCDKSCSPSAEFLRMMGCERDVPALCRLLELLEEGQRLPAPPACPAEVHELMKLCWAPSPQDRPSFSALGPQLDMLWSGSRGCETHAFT
Description: as §1
The kinase domain of human JAK3 was amplified from U937mRNA using the polymerase chain reaction with the following primers: […]
The JAK3 PCR products were cloned into the pDest20 destination expression vector (Gibco). The JAK3 plasmid was then transformed into competent DH10Bac cells (Gibco), and the recombinant baculovirus was prepared via Sf9 insect cell transfection.
as §2, §3

Flt 1(h) = target: T9, Flt 1(h) (Homo sapiens, UniProt P17948); test: Upstate KinaseProfiler enzyme assay, Flt 1; conditions: 500 nM compound; read-out: Percent inhibition at 500 nM Flt 1(h)
T9 construct: purchased Upstate Biotechnology (Dundee, UK), KinaseProfiler service
Description: as §4, §5

Flt 4(h) = target: T10, Flt 4(h) (Homo sapiens, UniProt P35916); test: Upstate KinaseProfiler enzyme assay, Flt 4; conditions: 500 nM compound; read-out: Percent inhibition at 500 nM Flt 4(h)
T10 construct: purchased Upstate Biotechnology (Dundee, UK), KinaseProfiler service
T10 sequence (P35916 25-1363): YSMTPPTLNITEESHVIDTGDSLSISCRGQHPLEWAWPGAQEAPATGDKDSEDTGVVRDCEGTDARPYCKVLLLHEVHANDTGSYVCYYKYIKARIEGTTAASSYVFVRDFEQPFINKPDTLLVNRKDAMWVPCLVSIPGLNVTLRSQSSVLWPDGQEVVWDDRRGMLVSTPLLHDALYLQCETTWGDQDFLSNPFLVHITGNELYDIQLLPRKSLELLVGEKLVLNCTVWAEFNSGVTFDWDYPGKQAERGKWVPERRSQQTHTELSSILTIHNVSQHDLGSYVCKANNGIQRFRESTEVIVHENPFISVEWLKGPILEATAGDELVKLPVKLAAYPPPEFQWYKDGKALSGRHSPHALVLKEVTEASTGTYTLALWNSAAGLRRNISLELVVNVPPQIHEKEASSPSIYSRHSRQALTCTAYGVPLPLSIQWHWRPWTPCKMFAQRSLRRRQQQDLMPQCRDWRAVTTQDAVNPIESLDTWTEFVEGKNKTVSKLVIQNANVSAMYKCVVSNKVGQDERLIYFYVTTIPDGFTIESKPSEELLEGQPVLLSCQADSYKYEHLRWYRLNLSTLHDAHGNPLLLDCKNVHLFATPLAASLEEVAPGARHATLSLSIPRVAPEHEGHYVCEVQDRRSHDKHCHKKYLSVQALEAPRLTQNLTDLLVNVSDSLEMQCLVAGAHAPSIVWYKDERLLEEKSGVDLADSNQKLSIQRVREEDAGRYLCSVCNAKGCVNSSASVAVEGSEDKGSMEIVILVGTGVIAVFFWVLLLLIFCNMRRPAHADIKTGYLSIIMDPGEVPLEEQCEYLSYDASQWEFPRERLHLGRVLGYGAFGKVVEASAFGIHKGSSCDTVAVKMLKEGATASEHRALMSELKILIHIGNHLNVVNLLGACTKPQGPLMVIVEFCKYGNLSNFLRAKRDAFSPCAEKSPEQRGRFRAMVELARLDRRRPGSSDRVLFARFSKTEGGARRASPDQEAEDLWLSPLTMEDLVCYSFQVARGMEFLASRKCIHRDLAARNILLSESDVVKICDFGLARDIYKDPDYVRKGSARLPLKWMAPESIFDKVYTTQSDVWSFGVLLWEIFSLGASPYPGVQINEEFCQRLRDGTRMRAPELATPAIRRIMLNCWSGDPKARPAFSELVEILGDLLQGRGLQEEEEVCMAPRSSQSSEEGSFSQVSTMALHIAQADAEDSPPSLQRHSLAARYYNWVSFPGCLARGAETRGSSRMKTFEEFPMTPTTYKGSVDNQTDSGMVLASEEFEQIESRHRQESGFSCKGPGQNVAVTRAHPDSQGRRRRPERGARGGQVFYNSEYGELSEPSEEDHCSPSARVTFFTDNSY
Description: as §4, §5

T1 sequence (P08631 233-526): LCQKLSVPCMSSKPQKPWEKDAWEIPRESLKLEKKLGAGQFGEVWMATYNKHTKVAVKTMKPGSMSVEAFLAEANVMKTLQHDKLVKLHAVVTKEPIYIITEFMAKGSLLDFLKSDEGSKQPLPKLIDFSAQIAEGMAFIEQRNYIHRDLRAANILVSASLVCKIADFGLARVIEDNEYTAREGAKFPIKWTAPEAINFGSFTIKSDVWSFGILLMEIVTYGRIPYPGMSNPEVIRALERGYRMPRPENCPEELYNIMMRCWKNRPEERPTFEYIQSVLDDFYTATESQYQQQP

| IC50 [1] [nM] | IC50 (human CSF1-R (FMS)) [nM] | inhibition at 0.5 µM (Blk(m)) [%] | inhibition at 0.5 µM (Bmx(h)) [%] | inhibition at 0.5 µM (BTK(h)) [%] | inhibition at 0.5 µM (KDR(h)) [%] | IC50 (human JAK2) [nM] | IC50 (human JAK3) [nM] | inhibition at 0.5 µM (Flt 1(h)) [%] | inhibition at 0.5 µM (Flt 4(h)) [%] | SMILES |
| --- | --- | --- | --- | --- | --- | --- | --- | --- | --- | --- |
|  |  | 98 | 92 |  | 96 | > 1000 | < 100 | 66 | 99 | C=CC(=O)N1CCCc2cc(Sc3nc(Nc4ccc(N5CCOCC5)cc4)ncc3C)ccc21 [Compound 168, 1-(6-(5-methyl-2-(4-morpholinophenylao)pyrimidin-4-ylthio)-3,4-dihydroquinolin-1(2H)-yl)prop-2-en-1-one] |
|  |  | 96 | 97 |  | 97 | > 1000 | < 100 | 74 | 99 | C=CC(=O)N1CCc2cc(Sc3nc(Nc4ccc(N5CCOCC5)cc4)ncc3C)ccc21 [Compound 170, 1-(5-(5-methyl-2-(4-morpholinophenylao)pyrimidin-4-ylthio)indolin-1-yl)prop-2-en-1-one] |

Further lines, the compound ahead of its results:

| SMILES | IC50 [1] [nM] | IC50 (human CSF1-R (FMS)) [nM] | inhibition at 0.5 µM (Blk(m)) [%] | inhibition at 0.5 µM (Bmx(h)) [%] | inhibition at 0.5 µM (BTK(h)) [%] | inhibition at 0.5 µM (KDR(h)) [%] | IC50 (human JAK2) [nM] | IC50 (human JAK3) [nM] | inhibition at 0.5 µM (Flt 1(h)) [%] | inhibition at 0.5 µM (Flt 4(h)) [%] |
| --- | --- | --- | --- | --- | --- | --- | --- | --- | --- | --- |
| Oc1cccc(Sc2ccnc(Nc3ccc(N4CCOCC4)cc3)n2)c1 [Compound 38, 3-(2-(4-morpholinophenylao)pyrimidin-4-ylthio)phenol] | < 500 | < 500 |  |  |  |  |  |  |  |  |
| C=C(C)C(=O)Nc1cccc(Sc2ccnc(Nc3ccc(N4CCOCC4)cc3)n2)c1 [Compound 115, N-(3-(2-(4-morpholinophenylao)pyrimidin-4-ylthio)phenyl)methacrylamide] |  |  | 100 | 100 | 100 | 100 |  |  |  |  |
| O=C(CCNc1ccccc1)Nc1ccc(Sc2ccnc(Nc3ccccc3)n2)cc1 [Compound 351, 3-(phenylao)-N-(4-(2-(phenylao)pyrimidin-4-ylthio)phenyl)propanamide] |  |  | 100 | 100 | 100 | 100 |  |  |  |  |
